The text below walks through data of patent publication US20250032526A1, “COMPOSITION, METHOD FOR PREPARING SAME, AND USE THEREOF” (priority 2022, published 2025).

The nature of data set [1]: Compatibility of raw material and auxiliary material (content measurement). The class given is physicochemical. As for the experimental part:
The mixture was allowed to stand at 60° C. high temperature condition (60° C.), high humidity condition (25° C., 92.5% RH), acceleration condition (40° C.±2° C., 75% RH±5%), and light condition (4500 1×±500 1×) for 10 days and 30 days, and then taken out to detect the content and the change of the related substance.

A short description of data set [2]: Stability investigation of related substance (capsules). Conditions: 0 day. The class given is physicochemical. From the text: The capsules provided by the present invention were taken and separately put under the conditions shown in Table 18 to investigate the stability.

As for `N#C[C@@]1(c2ccc3c(N)ncnn23)O[C@H](COC(=O)C2CCCCC2)[C@@H](O)[C@H]1O` [ATV014], the “Content measurement result, 25° C./92.5% RH, open, 10 day” value in data set [1] (25° C./92.5% RH, 10 day) was determined as 100.3%. Further, the “Content measurement result, 60° C., open, 10 day” value in data set [1] (60° C., 10 day) is 100.3%. Further, the “Content measurement result, 60° C., open, 30 day” value in data set [1] (60° C., 30 day) amounted to 100.5%. In data set [2], the “Impurity (%) RRT 0.42” value is 0.47%, the “Impurity (%) RRT 0.49 (0.48)” value is recorded as 0.19%, the “Impurity (%) RRT 1.16” value was determined as 0.75% and the “Impurity (%) RRT 1.42 (1.38)” value is 0.53%. Moreover, in data set [2], the “Impurity (%) RRT 1.44 (1.40)” value is recorded as 0.16%, the “Impurity (%) RRT 1.70 (1.65)” value is reported as 0.04% and the “Impurity (%) Total” value came out at 2.10%.
